Assay: Compound was tested for the inhibition of PTP-epsilon at the concentration 100 uM

inhibition, > 50%:
CN(C)c1ccc(C(NC(=O)c2ccc(C(F)(F)P(=O)(O)O)cc2)C(=O)NCc2ccccc2)cc1 (stereo not drawn)
O=C(NC(C(=O)NCc1ccccc1)c1ccc(Oc2ccccc2)cc1)c1ccc(C(F)(F)P(=O)(O)O)cc1 (stereo not drawn)
CCCCCC(NC(=O)c1ccc(C(F)(F)P(=O)(O)O)cc1)C(=O)NCc1ccccc1 (stereo not drawn)

From ChEMBL document CHEMBL1130955, “Solid-phase synthesis of potential protein tyrosine phosphatase inhibitors via the Ugi four-component condensation” (Bioorg Med Chem Lett, 1998)
